From patent publication US10087185B2 (Janssen Pharmaceutica NV, priority 2016, dated 2018)

Biological target: TARP γ8 dependent AMPA receptor (GRIA1o-CACNG8 fusion construct) (Homo sapiens (Human), UniProt P42261+Q8WXS5)
Assay: Calcium flux assay (FLIPR), inhibition of glutamate response of GluA1o-γ8 channel
Assay type: cell-based
Conditions: HEK293 cells stably expressing GRIA1o-CACNG8 fusion; calcium flux after 15 μM glutamate; negative log of the IC50 in molar
Description: This assay was used to test compounds for their ability to inhibit TARP γ8 dependent AMPA receptor activity. The AMPA receptor is a non-selective cation channel activated by glutamate. […] But, this desensitization is incomplete, and a substantial steady-state current remains in the sustained presence of glutamate (Cho et al. (2007). “Two families of TARP isoforms that have distinct effects on the kinetic properties of AMPA receptors and synaptic currents.” Neuron 55(6): 890-904).
An in vitro assay was used to determine the potency of test compounds as inhibitors of the glutamate response of the channel formed by GluA10-γ8. To ensure a 1:1 stoichiometry of GluA1o and γ8 subunits in the expressed channel, a fusion of the cDNAs for GRIA1o and CACNG8 was used. Following Shi et al (2009) “The stoichiometry of AMPA receptors and TARPs varies by neuronal cell type.” Neuron 62(5): 633-640), the C-terminus of the cDNA for GRIA1o was fused to the N-terminus of the cDNA for γ8. The linker sequence was […]. Channels expressed with this construct appear to have similar properties to channels formed by co-expression of GRIA1o with an excess of CACNG8 (Shi et al. 2009). A clonal cell line in HEK293 cells stably expressing this construct, with a geneticin selection marker, was generated for use in this assay.
Cell expressing the GRIA1o-CACNG8 fusion construct were grown in a monolayer in 96- or 384-well microtiter plates. They were washed with assay buffer (135 mM NaCl, 4 mM KCl, 3 mM CaCl2, 1 mM MgCl2, 5 mM glucose, 10 mM HEPES, pH 7.4, 300 mOs) using a Biotek EL405 plate washer. The cells were then loaded with a calcium-sensitive dye (Calcium-5 or Calcium-6, Molecular Devices) and the test compounds at a range of concentrations. Calcium flux following the addition of 15 μM glutamate was monitored using a Molecular Devices FLIPR Tetra.
The fluorescence in each well was normalized to the fluorescence of negative and positive control wells. The negative control wells had no added compounds, and the positive control wells had been incubated with 10 μM CP465022 (a non-subtype-selective AMPA receptor antagonist) (Lazzaro et al. (2002). “Functional characterization of CP-465,022, a selective, noncompetitive AMPA receptor antagonist.” Neuropharmacology 42(2): 143-153). The responses to glutamate as functions of the test compound concentrations were fitted to a four-parameter logistic function. The fitted parameter corresponding to the midpoint was taken to be the potency of inhibition of the compound. The data in Table 4 below illustrates the observed potency for the compounds described herein. pIC50 refers to the negative log of the IC50 in molar.

Chain of TARP γ8 dependent AMPA receptor (GRIA1o-CACNG8 fusion construct) (P42261 other isoform, or with tags, fused parts or gaps): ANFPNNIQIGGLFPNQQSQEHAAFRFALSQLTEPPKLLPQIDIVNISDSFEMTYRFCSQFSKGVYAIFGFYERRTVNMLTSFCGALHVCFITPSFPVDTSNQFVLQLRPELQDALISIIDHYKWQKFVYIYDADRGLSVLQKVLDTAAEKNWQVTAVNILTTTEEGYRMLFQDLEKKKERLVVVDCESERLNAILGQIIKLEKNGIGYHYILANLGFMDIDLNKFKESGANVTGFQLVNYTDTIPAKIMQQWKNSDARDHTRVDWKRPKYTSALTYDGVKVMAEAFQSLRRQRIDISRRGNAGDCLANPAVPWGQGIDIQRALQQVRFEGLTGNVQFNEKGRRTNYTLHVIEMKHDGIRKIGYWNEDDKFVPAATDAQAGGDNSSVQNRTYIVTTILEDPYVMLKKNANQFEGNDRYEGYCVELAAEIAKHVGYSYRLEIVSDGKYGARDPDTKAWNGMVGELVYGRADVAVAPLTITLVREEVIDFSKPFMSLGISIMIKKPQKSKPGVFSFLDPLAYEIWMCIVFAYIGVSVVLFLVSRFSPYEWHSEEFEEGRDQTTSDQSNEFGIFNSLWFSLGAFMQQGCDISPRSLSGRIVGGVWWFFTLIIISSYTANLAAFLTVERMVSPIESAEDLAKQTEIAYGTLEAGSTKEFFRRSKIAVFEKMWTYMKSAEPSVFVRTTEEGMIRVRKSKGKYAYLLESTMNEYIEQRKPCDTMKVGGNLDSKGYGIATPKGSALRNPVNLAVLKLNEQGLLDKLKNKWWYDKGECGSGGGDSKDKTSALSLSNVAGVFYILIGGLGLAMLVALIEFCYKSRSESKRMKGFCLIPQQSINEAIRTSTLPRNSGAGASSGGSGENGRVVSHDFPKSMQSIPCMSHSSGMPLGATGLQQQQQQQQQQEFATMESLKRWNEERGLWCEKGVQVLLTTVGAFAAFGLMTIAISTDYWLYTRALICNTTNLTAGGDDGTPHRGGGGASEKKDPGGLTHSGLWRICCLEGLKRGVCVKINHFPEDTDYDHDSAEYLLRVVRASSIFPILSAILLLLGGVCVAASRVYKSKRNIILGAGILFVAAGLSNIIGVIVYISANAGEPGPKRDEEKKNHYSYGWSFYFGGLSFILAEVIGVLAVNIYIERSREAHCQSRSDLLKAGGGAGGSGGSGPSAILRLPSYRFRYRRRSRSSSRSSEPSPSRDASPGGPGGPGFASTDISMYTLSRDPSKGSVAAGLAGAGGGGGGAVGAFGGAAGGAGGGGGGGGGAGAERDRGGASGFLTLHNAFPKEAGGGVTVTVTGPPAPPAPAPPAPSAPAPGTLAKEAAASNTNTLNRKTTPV

IC50	Compound
1 nM	CCc1nc2ccc(C(F)(F)F)c(-c3cc(C)c4[nH]ncc4c3)n2n1 [Example 26, 2-Ethyl-5-(7-methyl-1H-indazol-5-yl)-6-(trifluoromethyl)-[1,2,4]triazolo[1,5-a]pyridine]
0.158 nM	Cc1cc(C(F)(F)F)c(-c2cc(Cl)c3c(c2)CC(=O)N3)n2nc(C(F)(F)F)nc12 [Example 103]
0.251 nM	O=C1Cc2cc(-c3c(C(F)(F)F)ccc4nc(C(F)(F)F)nn34)cc(Cl)c2N1 [Example 3, 5-(2,6-Bis(trifluoromethyl)-[1,2,4]triazolo[1,5-a]pyridin-5-yl)-7-chloroindolin-2-one]
0.398 nM	O=C1Cc2cc(-c3c(C(F)(F)F)ccc4nc(C(F)F)nn34)cc(Cl)c2N1 [Example 9, 7-Chloro-5-(2-(difluoromethyl)-6-(trifluoromethyl)-[1,2,4]triazolo[1,5-a]pyridin-5-yl)indolin-2-one]
3.16 nM	CCCc1nc2c(C)cc(C(F)F)c(-c3cc(C)c4[nH]ncc4c3)n2n1 [Example 95, 6-(Difluoromethyl)-8-methyl-5-(7-methyl-1H-indazol-5-yl)-2-propyl-[1,2,4]triazolo[1,5-a]pyridine]
0.794 nM	CCc1nc2c(CC)cc(C(F)(F)F)c(-c3cc(Cl)c4[nH]ncc4c3)n2n1 [Example 89, 5-(7-Chloro-1H-indazol-5-yl)-2,8-diethyl-6-(trifluoromethyl)-[1,2,4]triazolo[1,5-a]pyridine]
3.98 nM	CCc1nc2c(Cl)cc(C(F)(F)F)c(-c3cc(C)c4[nH]ncc4c3)n2n1 [Example 30, 8-Chloro-2-ethyl-5-(7-methyl-1H-indazol-5-yl)-6-(trifluoromethyl)-[1,2,4]triazolo[1,5-a]pyridine]
1.26 nM	CCc1nc2ccc(C(F)F)c(-c3cc(C)c4[nH]ncc4c3)n2n1 [Example 45, 6-(Difluoromethyl)-2-ethyl-5-(7-methyl-1H-indazol-5-yl)-[1,2,4]triazolo[1,5-a]pyridine]
0.0794 nM	Cc1cc(-c2c(C(F)(F)F)ccc3cc(C(C)C)nn23)cc2cn[nH]c12 [Example 74, 5-(2-Isopropyl-6-(trifluoromethyl)pyrazolo[1,5-a]pyridin-7-yl)-7-methyl-1H-indazole]
0.794 nM	O=c1[nH]c2ccc(-c3c(C(F)(F)F)ccc4nc(C(F)F)nn34)cc2s1 [Example 54, 6-(2-(Difluoromethyl)-6-(trifluoromethyl)-[1,2,4]triazolo[1,5-a]pyridin-5-yl)benzo[d]thiazol-2(3H)-one]
0.501 nM	CCc1cc(C(F)(F)F)c(-c2cc(C)c3[nH]ncc3c2)n2nc(C3CC3)nc12 [Example 81, 2-Cyclopropyl-8-ethyl-5-(7-methyl-1H-indazol-5-yl)-6-(trifluoromethyl)-[1,2,4]triazolo[1,5-a]pyridine]
0.0794 nM	FC(F)(F)c1nc2ccc(C(F)(F)F)c(-c3cc(Cl)c4[nH]ncc4c3)n2n1 [Example 1, 5-(7-Chloro-1H-indazol-5-yl)-2,6-bis(trifluoromethyl)-[1,2,4]triazolo[1,5-a]pyridine]
1.58 nM	CCc1cc(C(F)(F)F)c(-c2cc(C)c3[nH]ncc3c2)n2nc(C(F)F)nc12 [Example 88, 2-(Difluoromethyl)-8-ethyl-5-(7-methyl-1H-indazol-5-yl)-6-(trifluoromethyl)-[1,2,4]triazolo[1,5-a]pyridine]
0.0398 nM	Cc1cc(-c2c(-c3ccc(F)cc3)ccc3nc(C(F)(F)F)nn23)cc2cn[nH]c12 [Example 55, 6-(4-Fluorophenyl)-5-(7-methyl-1H-indazol-5-yl)-2-(trifluoromethyl)-[1,2,4]triazolo[1,5-a]pyridine]
0.126 nM	FC(F)(F)c1ccc2nc(C3CC3)nn2c1-c1cc(Cl)c2[nH]ncc2c1 [Example 38, 5-(7-Chloro-1H-indazol-5-yl)-2-cyclopropyl-6-(trifluoromethyl)-[1,2,4]triazolo[1,5-a]pyridine]
1 nM	CCc1cc(C(F)F)c(-c2cc(C)c3[nH]ncc3c2)n2nc(C(F)(F)F)nc12 [Example 92, 6-(Difluoromethyl)-8-ethyl-5-(7-methyl-1H-indazol-5-yl)-2-(trifluoromethyl)-[1,2,4]triazolo[1,5-a]pyridine]

IC50	Compound
0.794 nM	Cc1cc(-c2c(-c3cccnc3)ccc3nc(C(F)(F)F)nn23)cc2cn[nH]c12 [Example 58, 5-(7-Methyl-1H-indazol-5-yl)-6-(pyridin-3-yl)-2-(trifluoromethyl)-[1,2,4]triazolo[1,5-a]pyridine]
0.1 nM	CC(F)(F)c1nc2ccc(C(F)(F)F)c(-c3cc(Cl)c4[nH]ncc4c3)n2n1 [Example 42, 5-(7-Chloro-1H-indazol-5-yl)-2-(1,1-difluoroethyl)-6-(trifluoromethyl)-[1,2,4]triazolo[1,5-a]pyridine]
0.0501 nM	CC(F)(F)c1ccc2nc(C(F)(F)F)nn2c1-c1cc(Cl)c2[nH]ncc2c1 [Example 53, 5-(7-Chloro-1H-indazol-5-yl)-6-(1,1-difluoroethyl)-2-(trifluoromethyl)-[1,2,4]triazolo[1,5-a]pyridine]
0.126 nM	Cc1cc(C(F)(F)F)c(-c2cc(Cl)c3c(c2)CC(=O)N3)n2nc(C3CC3)nc12 [Example 75, 7-Chloro-5-(2-cyclopropyl-8-methyl-6-(trifluoromethyl)-[1,2,4]triazolo[1,5-a]pyridin-5-yl)indolin-2-one]
2.51 nM	Cc1nc2c(C)cc(C(F)(F)F)c(-c3cc(Cl)c4[nH]ncc4c3)n2n1 [Example 116, 5-(7-Chloro-1H-indazol-5-yl)-2,8-dimethyl-6-(trifluoromethyl)-[1,2,4]triazolo[1,5-a]pyridine]
0.398 nM	CCc1cc(C(F)F)c(-c2cc(C)c3[nH]ncc3c2)n2nc(C3CC3)nc12 [Example 94, 2-Cyclopropyl-6-(difluoromethyl)-8-ethyl-5-(7-methyl-1H-indazol-5-yl)-[1,2,4]triazolo[1,5-a]pyridine]
0.158 nM	FC(F)c1nc2ccc(C(F)(F)F)c(-c3cc(C(F)(F)F)c4[nH]ncc4c3)n2n1 [Example 11, 2-(Difluoromethyl)-6-(trifluoromethyl)-5-(7-(trifluoromethyl)-1H-indazol-5-yl)-[1,2,4]triazolo[1,5-a]pyridine]
0.398 nM	O=C1Cc2cc(-c3c(C(F)(F)F)ccc4nc(C5CC5)nn34)cc(Cl)c2N1 [Example 40, 7-Chloro-5-(2-cyclopropyl-6-(trifluoromethyl)-[1,2,4]triazolo[1,5-a]pyridin-5-yl)indolin-2-one]
0.0631 nM	Cc1cc(-c2c(-c3ccc(F)cc3)ccc3nc(C(F)(F)F)nn23)cc2c1NC(=O)C2 [Example 57, 5-(6-(4-Fluorophenyl)-2-(trifluoromethyl)-[1,2,4]triazolo[1,5-a]pyridin-5-yl)-7-methylindolin-2-one]
0.316 nM	CCc1nc2c(C)cc(C(F)(F)F)c(-c3cc(C(F)(F)F)c4[nH]ncc4c3)n2n1 [Example 101, 2-Ethyl-8-methyl-6-(trifluoromethyl)-5-(7-(trifluoromethyl)-1H-indazol-5-yl)-[1,2,4]triazolo[1,5-a]pyridine]
12.6 nM	Cc1nc2ccc(C(F)(F)F)c(-c3cc(C)c4[nH]ncc4c3)n2n1 [Example 22, 2-Methyl-5-(7-methyl-1H-indazol-5-yl)-6-(trifluoromethyl)-[1,2,4]triazolo[1,5-a]pyridine]
0.0501 nM	Cc1cc(-c2c(C(F)F)ccc3cc(C(F)(F)F)nn23)cc2c1NC(=O)C2 [Example 119, 5-[6-(Difluoromethyl)-2-(trifluoromethyl)pyrazolo[1,5-a]pyridin-7-yl]-7-methyl-indolin-2-one]
5.01 nM	COc1ccc2nc(C(F)F)nn2c1-c1cc(C)c2[nH]ncc2c1 [Example 14, 2-(Difluoromethyl)-6-methoxy-5-(7-methyl-1H-indazol-5-yl)-[1,2,4]triazolo[1,5-a]pyridine]
0.126 nM	Cc1cc(-c2c(-c3ccc(F)cc3)ccc3nc(C4CC4)nn23)cc2cn[nH]c12 [Example 62, 2-Cyclopropyl-6-(4-fluorophenyl)-5-(7-methyl-1H-indazol-5-yl)-[1,2,4]triazolo[1,5-a]pyridine]
0.126 nM	Cc1cc(C(F)(F)F)c(-c2cc(Cl)c3[nH]ncc3c2)n2nc(C(F)F)nc12 [Example 78, 5-(7-Chloro-1H-indazol-5-yl)-2-(difluoromethyl)-8-methyl-6-(trifluoromethyl)-[1,2,4]triazolo[1,5-a]pyridine]
